Here are results for two compounds from ChEMBL document CHEMBL5375942, “Discovery of a Potent Chloroacetamide GPX4 Inhibitor with Bioavailability to Enable Target Engagement in Mice, a Potential Tool Compound for Inducing Ferroptosis In Vivo” (J Med Chem, 2023).

The test system of data set [1] is NCI-H1703. Briefly: Induction of ferroptosis in human NCI-H1703 cells assessed as cell viability incubated for 72 hrs by CellTiter-Glo luminescent cell viability assay. In kind it is functional, cell-based. Particulars: NCI-H1703, 72 h.
Data set [2] is described as follows: Plasma clearance in iv dosed mouse. In kind it is ADME, organism-based.
A short description of data set [3]: Metabolic stability in mouse liver microsomes assessed as unbound intrinsic clearance. In kind it is ADME, Microsome. Background: Liver microsomes are a subcellular fraction often used to study metabolism.
The nature of data set [4]: Metabolic stability in human liver microsomes assessed as unbound intrinsic clearance. The format is ADME, Microsome.
A short description of data set [5]: Stability in mouse plasma assessed as half life. In kind it is ADME, cell-free.
Data set [6] in a line: Stability in human plasma assessed as half life. The format is ADME, cell-free.
Data set [7] is described as follows: Aqueous solubility of the compound at pH 7. In kind it is physicochemical.
Data set [8] is described as follows: Aqueous solubility of the compound at pH 1. The format is physicochemical.
The nature of data set [9]: Half life in CB17 SCID-Beige mouse subcutaneously inoculated with WSUDLCL2 cells at 100 mg/kg, ip. In kind it is ADME, organism-based. The following applies: in vivo.
A short description of data set [10]: Cmax in CB17 SCID-Beige mouse subcutaneously inoculated with WSUDLCL2 cells at 100 mg/kg, ip. The format is ADME, organism-based. Particulars: in vivo. Also noted: dose 100 mg/kg, route ip.
A short description of data set [11]: AUC in CB17 SCID-Beige mouse subcutaneously inoculated with WSUDLCL2 cells at 100 mg/kg, ip. In kind it is ADME, organism-based. Also noted: dose 100 mg/kg, route ip. Particulars: in vivo.
The nature of data set [12]: Half life in CB17 SCID-Beige mouse subcutaneously inoculated with WSUDLCL2 cells at 100 mg/kg, sc. The format is ADME, organism-based. The following applies: in vivo.
Data set [13] can be described thus: Cmax in CB17 SCID-Beige mouse subcutaneously inoculated with WSUDLCL2 cells at 100 mg/kg, sc. The following applies: in vivo. The arrangement: dose 100 mg/kg, route sc. The format is ADME, organism-based.
The nature of data set [14]: AUC in CB17 SCID-Beige mouse subcutaneously inoculated with WSUDLCL2 cells at 100 mg/kg, sc. The following applies: in vivo. In kind it is ADME, organism-based. The arrangement: dose 100 mg/kg, route sc.
The test system of data set [15] is HT-1080. Nature of the data set: Induction of ferroptosis in GPX4-dependent human HT-1080 cells assessed as cell viability measured immediately after addition of compound by time-course cell viability assay. The format is functional, cell-based.
Data set [16] concerns HT-1080. Nature of the data set: Induction of ferroptosis in GPX4-dependent human HT-1080 cells assessed as cell viability incubated for […] by time-course cell viability assay. The format is functional, cell-based.
The test system of data set [17] is HT-1080. Briefly: Induction of ferroptosis in GPX4-dependent human HT-1080 cells assessed as cell viability incubated for 3 hrs by time-course cell viability assay. In kind it is functional, cell-based. The following applies: HT-1080, 3 h.
For data set [18], the system named is HT-1080. Briefly: Induction of ferroptosis in GPX4-dependent human HT-1080 cells assessed as cell viability incubated for 6 hrs by time-course cell viability assay. The following applies: HT-1080, 6 h. The format is functional, cell-based.
Data set [19] deals with HT-1080. Briefly: Induction of ferroptosis in GPX4-dependent human HT-1080 cells assessed as cell viability incubated for […] in presence of 40% human plasma by time-course cell viability assay. In kind it is functional, cell-based.
Data set [20] has as its system HT-1080. Nature of the data set: Induction of ferroptosis in GPX4-dependent human HT-1080 cells assessed as cell viability incubated for 3 hrs in presence of 40% human plasma by time-course cell viability assay. The format is functional, cell-based. The following applies: HT-1080, 3 h.
The subject of data set [21] is HT-1080. Briefly: Induction of ferroptosis in GPX4-dependent human HT-1080 cells assessed as cell viability incubated for 6 hrs in presence of 40% human plasma by time-course cell viability assay. In kind it is functional, cell-based. Particulars: HT-1080, 6 h.
For data set [22], the system named is HT-1080. Briefly: Induction of ferroptosis in GPX4-dependent human HT-1080 cells assessed as cell viability incubated for 24 hrs in presence of 40% human plasma by time-course cell viability assay. Particulars: HT-1080, 24 h. The format is functional, cell-based.
Data set [23] concerns the target Phospholipid hydroperoxide glutathione peroxidase GPX4 (Mus musculus) (UniProt O70325). Briefly: Target engagement at GPX4 in mouse 4T1 cells assessed as mass change between covalently bound protein and unbound protein at 0.01 to 1 ug/ml measured after 2 hrs by Western blot analysis. In kind it is cell-based. The following applies: dose 0.01-1 µg/ml. (In western blotting, separated proteins are transferred to a membrane and probed.)

For data set [24], the system named is WSUDLCL2. Nature of the data set: Induction of ferroptosis in human WSUDLCL2 cells assessed as cell viability incubated for 72 hrs by CellTiter-Glo luminescent cell viability assay. In kind it is functional, cell-based. Background: In ATP-based viability assays light output follows the ATP content of the culture.
In data set [25] the test system is WSUDLCL2. Nature of the data set: Induction of ferroptosis in human WSUDLCL2 cells assessed as cell viability incubated for 72 hrs in presence of ferrostatin-1 by CellTiter-Glo luminescent cell viability assay. In kind it is functional, cell-based.
In data set [26] the test system is WSUDLCL2. Nature of the data set: Induction of ferroptosis in human WSUDLCL2 cells assessed as cell viability incubated for 72 hrs in presence of liproxstatin-1 by CellTiter-Glo luminescent cell viability assay. The format is functional, cell-based.
Data set [27] relates to NCI-H1703. Briefly: Induction of ferroptosis in human NCI-H1703 cells assessed as cell viability incubated for 72 hrs in presence of ferrostatin-1 by CellTiter-Glo luminescent cell viability assay. The format is functional, cell-based. Particulars: NCI-H1703, 72 h.
Data set [28] concerns HT-1080. Nature of the data set: Induction of ferroptosis in GPX4-dependent human HT-1080 cells assessed as cell viability incubated for 24 hrs by time-course cell viability assay. Particulars: HT-1080, 24 h. In kind it is functional, cell-based.
The target of data set [29] is Phospholipid hydroperoxide glutathione peroxidase GPX4 (Mus musculus) (UniProt O70325). Nature of the data set: In vivo inhibition of GPX4 in SCID/Beige mouse assessed as increase in malondialdehyde level in kidney homogenate at 100 to 200 mg/kg, ip by TBAR assay. The format is functional, organism-based. The following applies: dose 100-200 mg/kg.
Chain of Phospholipid hydroperoxide glutathione peroxidase GPX4 (Mus musculus) (O70325 whole entry): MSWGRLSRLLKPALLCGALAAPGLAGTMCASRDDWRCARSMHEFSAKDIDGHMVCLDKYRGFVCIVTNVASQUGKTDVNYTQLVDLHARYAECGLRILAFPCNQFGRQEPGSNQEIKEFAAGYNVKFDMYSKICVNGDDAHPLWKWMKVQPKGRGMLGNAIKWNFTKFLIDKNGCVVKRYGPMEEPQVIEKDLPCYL
For data set [30] the target is unchanged. Nature of the data set: In vivo inhibition of GPX4 in SCID/Beige mouse assessed as increase in malondialdehyde level in plasma at 100 to 200 mg/kg, ip by TBAR assay. In kind it is functional, organism-based. Particulars: dose 100-200 mg/kg.
Data set [31] shares this target. Briefly: In vivo inhibition of GPX4 in SCID/Beige mouse assessed as fold increase in PTGS2 transcription in kidney homogenate at 100 to 200 mg/kg, ip by qPCR analysis relative to vehicle treated control. The format is functional, organism-based. The following applies: dose 100-200 mg/kg.
Data set [32] concerns WSUDLCL2. Nature of the data set: Effect on tumor volume in human WSUDLCL2 cells subcutaneously inoculated in CB17 SCID-Beige mouse tumor model at 50 to 100 mg/kg, ip measured upto day 20. Particulars: dose 50-100 mg/kg. The format is functional, organism-based.
The subject of data set [33] is WSUDLCL2. Briefly: In vivo target engagement at GPX4 in human WSUDLCL2 cells subcutaneously inoculated in CB17 SCID-Beige mouse assessed as target engagement in tumor at 50 to 100 mg/kg, ip measured upto day 20 by Western blot analysis. In kind it is functional, organism-based. Particulars: dose 50-100 mg/kg.

The structures appear in SMILES notation. pEC50: −log10 of the molar value. Calls of active or inactive are those of the source. No cut-off for these calls is given here.

For the compound `COC(=O)c1ccc([C@H]2c3[nH]c4ccccc4c3C[C@H](C(=O)OC)N2C(=O)CCl)cc1`, the pEC50 in the data set with NCI-H1703 [1] was 7.10; in the data set with HT-1080 [15], 6.23; with HT-1080 [16] it was 6.80; with HT-1080 [17], 7.10; in the data set with HT-1080 [18], 7.22; in the data set on HT-1080 [19], 5.85. Further, the values for the negative-log EC50 (pEC50) in the data set on HT-1080 [20], in the data set on HT-1080 [21] and with HT-1080 [22] were 6.00, 6.12 and 6.06, respectively. The clearance in data set [2] is 478 mL/min/kg. For the same compound, the CL free worked out at 8720 mL/min/kg in data set [3] and 195 mL/min/kg in [4]. Also, the half-life was 0.167 h in data set [5], 14.6 h in [6], 1.8 h in [9] and 4.1 h in [12]. For the same compound, the solubility in data set [7] and in data set [8] was < 0.8 µM each time. The figures for the Cmax in data set [10] and in data set [13] were 650 ng/mL and 480 ng/mL, respectively. Further, the values for the AUC in data set [11] and in data set [14] were 2.79 µg/h/mL and 2.67 µg/h/mL, respectively. In addition, the result (in [23]; in the data set with WSUDLCL2 [24]) was Active. In addition, the result in the data set with WSUDLCL2 [25] and with WSUDLCL2 [26] was inactive.

With `COC(=O)[C@H]1Cc2c([nH]c3ccccc23)[C@H](c2ccc(S(C)(=O)=O)cc2)N1C(=O)CCl`, the pEC50 in the data set on NCI-H1703 [1] is 6.93; with NCI-H1703 [27] it was 5.32; in the data set with HT-1080 [16] it was 6.07; in the data set on HT-1080 [17], 6.57; with HT-1080 [18], 6.77; in the data set on HT-1080 [28], 7.05. Further, the pEC50 in the data set with HT-1080 [19] is 5.90; with HT-1080 [20], 6.11; in the data set with HT-1080 [21], 6.31; in the data set with HT-1080 [22], 6.28. The result (in data set [29]; in data set [30]; in [31]; in the data set with WSUDLCL2 [24]; in the data set with WSUDLCL2 [33]) was Active. Besides, in data set [31], the fold change (FC) turned out to be 8. Further, the outcome in the data set on WSUDLCL2 [25], in the data set on WSUDLCL2 [26] and in the data set on WSUDLCL2 [32] was inactive.

By pEC50 is commonly meant the negative decadic logarithm of the EC50, by convention in mol/L. Usually clearance stands for the volume of plasma or blood freed of the substance per unit of time. The term half-life denotes the time in which the quantity being followed falls by half. One may read the solubility as how much of the substance goes into solution per volume. Low readings indicate little dissolved substance, high ones much dissolved substance. What is called Cmax is the maximum level reached in the sampled fluid or tissue.
